Measurements reported in ChEMBL document CHEMBL3784945, “Isoindolinone compounds active as Kv1.5 blockers identified using a multicomponent reaction approach” (Bioorg Med Chem Lett, 2016).
pIC50: −log10 of the molar value. In brackets after ≈: the same amount, converted by molar mass.

Assays:
[1] = target: Voltage-gated inwardly rectifying potassium channel KCNH2 (Homo sapiens, UniProt Q12809); test: Inhibition of human ERG
Liver microsome = test: (§1) Intrinsic clearance in human liver microsomes; type: ADME; conditions: microsomes
[2] = target: T1, Potassium voltage-gated channel subfamily A member 5 (Homo sapiens, UniProt P22460); test: Inhibition of human Kv1.5 channel by QPatch-clamp method
[3] = as §1; type: ADME; conditions: liver microsomes, read-out: CLH
[4] = Lipophilicity, log D of the compound by HPLC analysis; type: physicochemical
Mus musculus = test: In vivo inhibition of Kv1.5 channel in BaLBc mouse assessed as unbound steady-state plasma concentration required to increase QT-interval by 30% at 20 umol/kg,iv for 15 mins; type: functional
[5] = target: T1, Potassium voltage-gated channel subfamily A member 5; test: Inhibition of human Kv1.5 channel by Rb-flux assay
[6] = Absolute bioavailability in rat; type: ADME, organism-based; conditions: in vivo
[7] = Absolute bioavailability in dog; type: ADME, organism-based, Canis lupus familiaris; conditions: in vivo
Cytochrome P450 3A4 = Cytochrome P450 3A4 (Homo sapiens, UniProt P08684); test: Inhibition of CYP3A4 (unknown origin); type: ADME
[8] = Clearance in iv dosed rat; type: ADME, organism-based; conditions: in vivo
[9] = Clearance in iv dosed dog; type: ADME, organism-based, Canis lupus familiaris; conditions: in vivo
[10] = Solubility of crystalline form of compound; type: physicochemical
[11] = Solubility of the compound; type: physicochemical

Chain of Voltage-gated inwardly rectifying potassium channel KCNH2 (Q12809 whole entry): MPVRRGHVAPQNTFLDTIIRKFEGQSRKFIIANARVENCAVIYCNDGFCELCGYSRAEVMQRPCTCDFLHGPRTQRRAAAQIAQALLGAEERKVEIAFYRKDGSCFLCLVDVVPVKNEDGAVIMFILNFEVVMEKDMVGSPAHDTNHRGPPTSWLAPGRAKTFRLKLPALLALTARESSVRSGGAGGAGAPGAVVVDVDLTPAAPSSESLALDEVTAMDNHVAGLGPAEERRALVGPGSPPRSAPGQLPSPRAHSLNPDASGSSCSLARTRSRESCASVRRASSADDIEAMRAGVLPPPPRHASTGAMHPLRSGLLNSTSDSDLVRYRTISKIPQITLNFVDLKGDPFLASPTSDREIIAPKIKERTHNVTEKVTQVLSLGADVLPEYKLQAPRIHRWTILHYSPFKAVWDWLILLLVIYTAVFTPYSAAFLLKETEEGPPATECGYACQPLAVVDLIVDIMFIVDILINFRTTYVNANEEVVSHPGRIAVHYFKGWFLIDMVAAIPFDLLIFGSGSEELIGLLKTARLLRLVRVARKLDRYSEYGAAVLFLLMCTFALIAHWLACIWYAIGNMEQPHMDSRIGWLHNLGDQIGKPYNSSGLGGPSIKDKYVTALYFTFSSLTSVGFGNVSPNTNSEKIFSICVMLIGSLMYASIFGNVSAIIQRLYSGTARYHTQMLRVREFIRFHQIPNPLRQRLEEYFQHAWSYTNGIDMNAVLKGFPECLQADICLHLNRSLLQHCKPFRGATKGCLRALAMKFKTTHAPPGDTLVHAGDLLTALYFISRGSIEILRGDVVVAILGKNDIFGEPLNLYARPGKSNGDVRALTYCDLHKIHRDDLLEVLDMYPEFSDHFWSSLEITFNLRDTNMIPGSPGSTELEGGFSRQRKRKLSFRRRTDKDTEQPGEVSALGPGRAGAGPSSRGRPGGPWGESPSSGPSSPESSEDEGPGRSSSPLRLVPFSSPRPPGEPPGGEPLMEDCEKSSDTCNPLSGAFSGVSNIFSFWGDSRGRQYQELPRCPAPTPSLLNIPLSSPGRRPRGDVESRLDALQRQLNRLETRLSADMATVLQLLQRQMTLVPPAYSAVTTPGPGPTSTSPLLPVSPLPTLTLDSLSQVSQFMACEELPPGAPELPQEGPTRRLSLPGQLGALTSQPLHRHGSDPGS
T1 sequence (P22460 whole entry): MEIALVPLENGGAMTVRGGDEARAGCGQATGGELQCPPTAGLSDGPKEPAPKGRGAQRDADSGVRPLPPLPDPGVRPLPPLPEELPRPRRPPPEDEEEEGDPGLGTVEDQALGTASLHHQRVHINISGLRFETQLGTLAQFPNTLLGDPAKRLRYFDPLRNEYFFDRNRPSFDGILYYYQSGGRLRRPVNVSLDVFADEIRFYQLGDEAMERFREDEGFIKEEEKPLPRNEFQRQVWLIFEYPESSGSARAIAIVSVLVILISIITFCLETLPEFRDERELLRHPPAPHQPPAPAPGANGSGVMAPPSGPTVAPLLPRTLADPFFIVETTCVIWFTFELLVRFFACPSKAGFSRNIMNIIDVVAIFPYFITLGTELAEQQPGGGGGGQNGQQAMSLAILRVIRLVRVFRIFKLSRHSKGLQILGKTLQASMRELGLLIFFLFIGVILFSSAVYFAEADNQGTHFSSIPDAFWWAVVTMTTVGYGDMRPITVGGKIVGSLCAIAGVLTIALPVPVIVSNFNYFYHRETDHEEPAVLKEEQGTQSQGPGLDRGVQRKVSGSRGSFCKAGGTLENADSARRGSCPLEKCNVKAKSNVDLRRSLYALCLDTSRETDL
Chain of Cytochrome P450 3A4 (P08684 whole entry): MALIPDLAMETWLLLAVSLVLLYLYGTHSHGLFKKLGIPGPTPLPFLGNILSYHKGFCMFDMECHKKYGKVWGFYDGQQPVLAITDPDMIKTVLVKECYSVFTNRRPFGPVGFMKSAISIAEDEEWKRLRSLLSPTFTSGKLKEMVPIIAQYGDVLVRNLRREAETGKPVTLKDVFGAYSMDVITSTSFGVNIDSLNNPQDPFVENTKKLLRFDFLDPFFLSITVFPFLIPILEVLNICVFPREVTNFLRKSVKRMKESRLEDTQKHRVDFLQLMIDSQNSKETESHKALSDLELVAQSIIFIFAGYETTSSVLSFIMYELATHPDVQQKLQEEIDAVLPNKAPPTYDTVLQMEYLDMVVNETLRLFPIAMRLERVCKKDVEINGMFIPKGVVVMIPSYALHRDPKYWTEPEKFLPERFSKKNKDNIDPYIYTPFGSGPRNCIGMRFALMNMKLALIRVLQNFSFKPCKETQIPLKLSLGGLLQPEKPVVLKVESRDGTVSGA

Row | Structure (SMILES) | pIC50 [2] | microsomal CLint [3] | logD ([4]; read-out: logD) | pIC50 [5] | pIC50 [1] | other results
1 | Cc1c(OS(C)(=O)=O)ccc2c1C(=O)N(Cc1ccccc1-c1ccccc1)C2C(=O)NC(C)(C)C (racemic) | – | > 100 µL/min/mg | 5.1 | 4.98 | < 4.49 | –
2 | Cc1c(OC(F)F)ccc2c1C(=O)N(Cc1ccccc1-c1ccccc1)C2C(=O)NC(C)(C)C (racemic) | – | > 100 µL/min/mg | 5.9 | 5.92 | 4.66 | –
3 | Cc1c(O)ccc2c1C(=O)N(Cc1ccccc1-c1ccc(F)c(F)c1)C2C(=O)NC(C)(C)C (centres undefined) | 5.46 | < 12 µL/min/mg | 4.6 | – | – | –
4 | COCCOCCNC(=O)C1c2cc(F)ccc2C(=O)N1CC(C)c1ccc(Cl)cc1 (racemic) | – | > 100 µL/min/mg | 3.6 | < 4.49 | < 4.48 | –
5 | CC(C)(C)NC(=O)C1c2ccc(C#N)cc2C(=O)N1Cc1ccccc1-c1ccccc1 (racemic) | – | > 100 µL/min/mg | 4.7 | 4.43 | – | –
6 | O=C(NCc1ccncc1)C1c2ccccc2C(=O)N1Cc1ccccc1-c1ccccc1 (racemic) | – | > 100 µL/min/mg | – | 4.89 | < 4.48 | –
7 | CC(C)(C)NC(=O)C1c2ccc(O)cc2C(=O)N1Cc1ccccc1-c1ccccc1 (racemic) | 5.16 | > 100 µL/min/mg | 4 | 5.08 | 4.35 | –
8 | CC(C)(C)NC(=O)C1c2ccc(NS(C)(=O)=O)cc2C(=O)N1Cc1ccccc1-c1ccccc1 (racemic) | 5.12 | 59 µL/min/mg | 4 | 4.77 | 4.82 | –
9 | CC(c1ccccc1)N1C(=O)c2ccccc2C1C(=O)NCc1ccccc1 (racemic) | – | > 100 µL/min/mg | 3.5 | – | < 4.48 | –
10 | CC(C)(C)NC(=O)C1c2ccccc2C(=O)N1Cc1ccccc1-c1ccc(F)cc1 (centres undefined) | 5.22 | 53 µL/min/mg | 4.8 | – | 4.25 | –
11 | CC(C)(C)NC(=O)C1c2ccccc2C(=O)N1Cc1ccccc1-c1ccccc1 (racemic) | – | > 100 µL/min/mg | 4.7 | – | 4.21 | –
12 | Cc1c(NS(C)(=O)=O)ccc2c1C(=O)N(Cc1ccccc1-c1ccccc1)C2C(=O)NC(C)(C)C (racemic) | 5.35 | 88 µL/min/mg | 4.3 | 4.51 | < 4.48 | –
13 | CC(C)(C)NC(=O)C1c2cc(C#N)ccc2C(=O)N1Cc1ccccc1-c1ccccc1 (racemic) | 5.48 | > 100 µL/min/mg | 4.7 | – | < 4.48 | –
14 | CC(C)(C)NC(=O)C1c2ccccc2C(=O)N1Cc1ccccc1-c1ccccc1 (single isomer, unassigned; enantiomer 1) | – | – | – | – | < 4.48 | –
15 | CC(c1ccccc1)N1C(=O)c2ccccc2C1C(=O)NC(C)(C)CO (racemic) | < 5.00 | 34 µL/min/mg | – | < 4.49 | < 4.48 | –
16 | COc1ccc2c(c1)C(=O)N(Cc1ccccc1-c1ccccc1)C2C(=O)NC(C)(C)C (racemic) | – | > 100 µL/min/mg | 4.9 | 4.95 | 4.52 | –
17 | Cc1c(O)ccc2c1C(=O)N(Cc1ccccc1-c1ccc(F)cc1)C2C(=O)NC(C)(C)C (centres undefined) | 5.57 | < 12 µL/min/mg | 4.5 | – | < 4.49 | –
18 | CC(C)(C)NC(=O)C1c2ccccc2C(=O)N1Cc1ccccc1-c1ccccc1 (single isomer, unassigned; enantiomer 2) | – | – | – | – | < 4.48 | –
19 | CC(C)(C)NC(=O)C1c2cc(Cl)ccc2C(=O)N1C(c1cccnc1)c1cccnc1 (racemic) | – | 62 µL/min/mg | – | < 4.49 | – | –
20 | Cc1c(O)ccc2c1C(=O)N(Cc1ccccc1-c1ccccc1)C2C(=O)NC(C)(C)C (single isomer, unassigned; enantiomer 2) | 5.47 | – | – | 4.77 | 4.59 | CLH (Liver microsome): 24 µL/min/mg

Continued, in another order:

Row | pIC50 [2] | microsomal CLint [3] | logD ([4]; read-out: logD) | pIC50 [5] | Structure (SMILES) | pIC50 [1] | other results
21 | 5.77 | – | – | – | CC(C)(C)NC(=O)C1c2ccccc2C(=O)N1Cc1ccc(F)cc1-c1ccccc1 (single isomer, unassigned) | < 4.49 | CLH (Liver microsome): 62 µL/min/mg
22 | 5.96 | – | – | – | CC(C)(C)NC(=O)C1c2ccccc2C(=O)N1Cc1ccccc1-c1ccc(F)c(F)c1 (single isomer, unassigned; enantiomer 2) | < 4.51 | CLH (Liver microsome): 103 µL/min/mg
23 | 6.22 | 23 µL/min/mg | 4.1 | – | CC(C)(CN1C(=O)c2ccccc2C1C(=O)NCCCC(F)F)c1ccc(F)cc1 (centres undefined) | – | –
24 | 6.05 | – | – | – | CC(C)(C)NC(=O)C1c2ccccc2C(=O)N1Cc1cc(F)ccc1-c1ccc(F)cc1 (single isomer, unassigned; enantiomer 2) | < 4.48 | Activity (Mus musculus): 0.28 µM; CLH (Liver microsome): 41 µL/min/mg
25 | 6.05 | 180 µL/min/mg | 4.1 | – | CCCCNC(=O)C1c2ccccc2C(=O)N1CC(C)c1ccc(F)cc1 (racemic) | – | –
26 | 5.85 | 34 µL/min/mg | 5 | – | CC(C)(C)NC(=O)C1c2ccccc2C(=O)N1Cc1ccc(F)cc1-c1ccc(F)cc1 (centres undefined) | < 4.48 | Activity (Mus musculus): 0.9 µM
27 | 6.10 | 58 µL/min/mg | 5.2 | – | CC(C)(C)NC(=O)C1c2ccccc2C(=O)N1Cc1ccc(F)cc1-c1ccccc1 (single isomer, unassigned; enantiomer 1) | < 4.48 | Activity (Mus musculus): 0.054 µM
28 | 5.70 | < 12 µL/min/mg | 4.4 | 5.49 | Cc1c(O)ccc2c1C(=O)N(Cc1ccccc1-c1ccccc1)C2C(=O)NC(C)(C)C (racemic) | 4.34 | –
29 | 5.70 | 49 µL/min/mg | 5.3 | – | CC(C)(C)NC(=O)C1c2ccccc2C(=O)N1Cc1cc(F)ccc1-c1ccc(F)cc1 (single isomer, unassigned; enantiomer 1) | < 4.48 | Activity (Mus musculus): 0.055 µM
30 | 6.40 | 99 µL/min/mg | 4.2 | – | CCCNC(=O)C1c2ccccc2C(=O)N1CC(C)c1ccc(Cl)cc1 (single isomer, unassigned; isomer 1) | – | Activity (Mus musculus): 0.5 µM; bioavailability [6]: 81%; bioavailability [7]: 63%; pIC50 (Cytochrome P450 3A4): < 4.30; clearance [8]: 7.8 mL/min/kg; clearance [9]: 6 mL/min/kg; solubility [10]: 21 µM (≈ 7.79 µg/mL)
31 | 5.68 | > 100 µL/min/mg | 4.6 | – | CC(C)(C)NC(=O)C1c2c(O)cccc2C(=O)N1Cc1ccccc1-c1ccccc1 (racemic) | 4.55 | –
32 | 5.92 | < 12 µL/min/mg | 3.7 | – | CC(C)(CN1C(=O)c2ccccc2C1C(=O)NCC(F)F)c1ccc(F)cc1 (centres undefined) | – | Activity (Mus musculus): 1.6 µM
33 | 5.92 | 73 µL/min/mg | 3.7 | – | CC(CN1C(=O)c2ccccc2C1C(=O)NCC(F)F)c1ccc(Cl)cc1 (racemic) | – | –
34 | 5.85 | 102 µL/min/mg | 5.2 | – | CC(C)(C)NC(=O)C1c2ccccc2C(=O)N1Cc1cc(F)ccc1-c1ccccc1 (single isomer, unassigned; enantiomer 1) | < 4.48 | Activity (Mus musculus): 0.079 µM
35 | 5.89 | – | – | 5.96 | Cc1c(O)ccc2c1C(=O)N(Cc1ccccc1-c1ccccc1)C2C(=O)NC(C)(C)C (single isomer, unassigned) | < 4.49 | CLH (Liver microsome): 20 µL/min/mg
36 | 6.00 | – | – | – | CC(C)(CN1C(=O)c2ccccc2C1C(=O)NCCCF)c1ccc(Cl)cc1 (single isomer, unassigned; enantiomer 2) | – | CLH (Liver microsome): 19 µL/min/mg
37 | 6.15 | 14 µL/min/mg | 4.2 | – | CC(C)(CN1C(=O)c2ccccc2C1C(=O)NCCCF)c1ccc(Cl)cc1 (single isomer, unassigned; enantiomer 1) | < 4.48 | Activity (Mus musculus): 0.4 µM; solubility [11]: 83 µM (≈ 33.4 µg/mL); bioavailability [6]: 58%; bioavailability [7]: 41%; pIC50 (Cytochrome P450 3A4): < 4.30; clearance [8]: 4.7 mL/min/kg; clearance [9]: 18 mL/min/kg
38 | 5.89 | > 100 µL/min/mg | 5.6 | – | Cc1c(OCF)ccc2c1C(=O)N(Cc1ccccc1-c1ccccc1)C2C(=O)NC(C)(C)C (racemic) | – | –
39 | 5.96 | > 100 µL/min/mg | 4.5 | 6.15 | CCCCNC(=O)C1c2ccccc2C(=O)N1CC(C)c1ccc(Cl)cc1 (racemic) | 4.49 | –
40 | 6.10 | > 100 µL/min/mg | 5.6 | – | COc1ccc2c(c1C)C(=O)N(Cc1ccccc1-c1ccccc1)C2C(=O)NC(C)(C)C (racemic) | – | –
41 | 6.30 | – | – | – | CC(C)(CN1C(=O)c2ccccc2C1C(=O)NCCCF)c1ccc(Cl)cc1 (stereo in doubt; 23) | – | Activity (Mus musculus): 1.3 µM; CLH (Liver microsome): < 12 µL/min/mg; logD [4]: 4
42 | 5.80 | – | – | – | CC(C)(C)NC(=O)C1c2ccccc2C(=O)N1Cc1cc(F)ccc1-c1ccccc1 (single isomer, unassigned; enantiomer 2) | < 4.48 | CLH (Liver microsome): 96 µL/min/mg
43 | 5.92 | 64 µL/min/mg | 3.5 | – | CCCCNC(=O)C1c2ccccc2C(=O)N1CC(C)(O)c1ccc(Cl)cc1 (centres undefined) | – | –
44 | 6.15 | – | – | – | CCCNC(=O)C1c2ccccc2C(=O)N1CC(C)c1ccc(Cl)cc1 (single isomer, unassigned; isomer 2) | – | Activity (Mus musculus): 0.4 µM; CLH (Liver microsome): 183 µL/min/mg; logD [4]: 3.9
45 | 5.82 | – | 5 | – | CC(C)(C)NC(=O)C1c2ccccc2C(=O)N1Cc1ccccc1-c1ccc(F)c(F)c1 (stereo in doubt; 16E1) | < 4.48 | Activity (Mus musculus): 0.066 µM; CLH (Liver microsome): 38 µL/min/mg
